Bridge positions count the residues as written; N and C are the ends. Square brackets hold non-standard residues; d marks the D form. Ends that are not written are not given here. COCH2 = acetyl group that carries the bridge; hCys = N[C@@H](CCS)C(=O)O; Orn = NCCC[C@H](N)C(=O)O; Dab = NCC[C@H](N)C(=O)O; Dap = NC[C@H](N)C(=O)O
Key:
[1] = tested on: Recombinant Human FGFR1 alpha (IIIc) Fc Chimera Protein; test: Binding affinity of enzymatically synthesized cyclic peptide to FGFR by ELISA; conditions: luminescence signal at reaction concentration 10 nmol/L, SEQ ID NO: 39 standardized to 1, enzyme synthesis product
Procedure, shortened: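 Plate-immobilized FGFR1α(IIIc)-Fc (5 ng/well) incubated with Myc-tagged cyclic peptide 3 h at room temperature; bound peptide detected with anti-Myc antibody (2 h) and chemiluminescence. Signal is FGFR minus no-FGFR wells, normalized to SEQ ID NO: 39 at 10 nmol/L and graded A–D.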

[2] = target: T1, Recombinant Human FGFR1 alpha (IIIc) Fc Chimera Protein, CF (R&D systems, 658-FR-050) (human, UniProt P11362 22-376); test: SPR, FGFR1-Fc immobilized, 10 nmol/L peptide
T1 construct: bought reagent; not shown: Fc of the bought chimera
T1 sequence (looked up): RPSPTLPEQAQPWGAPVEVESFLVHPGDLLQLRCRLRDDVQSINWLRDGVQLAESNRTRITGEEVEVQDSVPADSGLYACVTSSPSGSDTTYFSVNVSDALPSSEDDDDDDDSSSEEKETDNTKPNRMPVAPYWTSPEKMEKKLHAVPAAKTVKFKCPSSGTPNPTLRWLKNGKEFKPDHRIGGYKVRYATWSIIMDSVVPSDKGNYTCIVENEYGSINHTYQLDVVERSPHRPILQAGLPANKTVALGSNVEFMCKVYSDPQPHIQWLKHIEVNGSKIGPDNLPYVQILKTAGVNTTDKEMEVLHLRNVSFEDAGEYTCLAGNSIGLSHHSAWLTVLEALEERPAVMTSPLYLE
Protocol: A CM5 sensor chip (Cytiva, 29149603) was set in Biacore-T200 (manufactured by Cytiva) which is a surface plasmon resonance device, and an HBS-EP buffer (Cytiva, BR100826) was added as a running buffer at a flow rate of 10 μL/min to equilibrate the flow channel. Next, 70 μL of a mixed aqueous solution of 0.2 mol/L 1-(3-dimethylaminopropyl)-3-ethylcarbodiimide (EDC) and 0.05 mol/L N-hydroxysuccinimide (NHS) was added to activate the sensor chip. Then, Recombinant Human FGFR 1 alpha (IIIc) Fc Chimera Protein CF (R&D systems, 658-FR-050) prepared at 50 nmol/L in an Acetate 4.5 buffer (Cytiva, BR100350) was added thereto to perform immobilization at about 5000 RU. Thereafter, the blocking treatment was performed with an ethanolamine solution. In addition, in another flow channel of the same sensor chip, blocking treatment was performed immediately after activation without immobilizing FGFR.
A cyclic peptide diluted to 10 nmol/L using HBS-EP was added to each flow channel of the FGFR-immobilized sensor chip produced above at 25° C. for 10 minutes, then HBS-EP was allowed to flow as a running buffer for 30 minutes, and the binding of the cyclic peptide to FGFR was measured. Thereafter, a regeneration treatment of removing the bound cyclic peptide was performed by repeating the flow of a regeneration liquid in which sodium chloride powder was dissolved in Glysine 1.5 (Cytiva, BR100354) to a final concentration of 0.15 mol/L for 1 minute in each flow channel twice. The binding amount of the cyclic peptide was evaluated from the difference between the measured value of Biacore-T200 in the flow channel in which FGFR was immobilized and the measured value of Biacore-T200 in the flow channel in which FGFR was not immobilated, in a case where a 10 nmol/L cyclic peptide was allowed to flow.

251 (DCIWRVTISGHLAPFWFK(COCH2)Y; thioether 2-18 (inferred)) [compound 251]
Evaluation result of binding affinity to FGFR [1]: B (0.5 or more and less than 0.7)

373 (CERLIFHGHEAPFWVK(COCH2); thioether 1-16) [compound 373]
Evaluation result of binding affinity to FGFR [1]: A (0.7 or more)

116 (HCSYERLQFHGHEAQFRVK(COCH2)V; thioether 2-19 (inferred)) [compound 116]
Evaluation result of binding affinity to FGFR [1]: C (0.1 or more and less than 0.5)

298 (HCSYMRLQFHGHEAPFRVK(COCH2)V; thioether 2-19 (inferred)) [compound 298]
Evaluation result of binding affinity to FGFR [1]: B (0.5 or more and less than 0.7)

326 (HCSYERLQFHGHIAPFWVK(COCH2)V; thioether 2-19 (inferred)) [compound 326]
Evaluation result of binding affinity to FGFR [1]: A (0.7 or more)

199 (HCSYERLQFHGHEAPFSVK(COCH2)V; thioether 2-19 via Ac) [compound 199]
Evaluation result of binding affinity to FGFR [1]: B (0.5 or more and less than 0.7)

267 (ACRWAQLQFLSWGAPFLVK(COCH2)T; thioether 2-19 (inferred)) [compound 267]
Evaluation result of binding affinity to FGFR [1]: C (0.1 or more and less than 0.5)

117 (HCSYERLQFHGHEADFRVK(COCH2)V; thioether 2-19 (inferred)) [compound 117]
Evaluation result of binding affinity to FGFR [1]: B (0.5 or more and less than 0.7)

348 (PCTGWTPLYFFGKRAPFLVNK(COCH2)A; thioether 2-21) [compound 348]
Evaluation result of binding affinity to FGFR [1]: C (0.1 or more and less than 0.5)

236 (HK(COCH2)TWERLIFQGHIAPFWVCR; thioether 2-19 (inferred)) [compound 236]
Evaluation result of binding affinity to FGFR [1]: A (0.7 or more)

188 (HCSYERLQFHGHDAPFRVK(COCH2)V; thioether 2-19 via Ac) [compound 188]
Evaluation result of binding affinity to FGFR [1]: A (0.7 or more)

317 (HCTWERLRFLGHIAPFWVK(COCH2)R; thioether 2-19 (inferred)) [compound 317]
Evaluation result of binding affinity to FGFR [1]: C (0.1 or more and less than 0.5)

57 (HCAYERLQFHGHEAPFRVK(COCH2)V; thioether 2-19 (inferred)) [compound 57]
Evaluation result of binding affinity to FGFR [1]: A (0.7 or more)

148 (HCSYERLVFHGHEAPFRVK(COCH2)V; thioether 2-19 (inferred)) [compound 148]
Evaluation result of binding affinity to FGFR [1]: A (0.7 or more)

84 (HCLYERLQFHGHEAPFRVKV; not fully specified; Description of Artificial Sequence: Cyclic peptide) [compound 84]
Evaluation result of binding affinity to FGFR [1]: A (0.7 or more)

180 (HCSYERLQFHGHVAPFRVK(COCH2)V; thioether 2-19 via Ac) [compound 180]
Evaluation result of binding affinity to FGFR [1]: A (0.7 or more)

314 (HCTFERLIFLGHIAPFWVK(COCH2)R; thioether 2-19 (inferred)) [compound 314]
Evaluation result of binding affinity to FGFR [1]: C (0.1 or more and less than 0.5)

320 (HCTWERLIFLGHLAPFWVK(COCH2)R; thioether 2-19 (inferred)) [compound 320]
Evaluation result of binding affinity to FGFR [1]: C (0.1 or more and less than 0.5)

200 (HCSYERLQFHGHEAPFTVK(COCH2)V; thioether 2-19 via Ac; not fully specified) [compound 200]
Evaluation result of binding affinity to FGFR [1]: A (0.7 or more)

313 (HCQWERLIFLGHIAPFWVK(COCH2)R; thioether 2-19 (inferred)) [compound 313]
Evaluation result of binding affinity to FGFR [1]: C (0.1 or more and less than 0.5)

222 (HCSYERLQFHGHEAPFRVK(COCH2)R; thioether 2-19 (inferred)) [compound 222]
Evaluation result of binding affinity to FGFR [1]: A (0.7 or more)

316 (HCTWERLVFLGHIAPFWVK(COCH2)R; thioether 2-19 (inferred)) [compound 316]
Evaluation result of binding affinity to FGFR [1]: C (0.1 or more and less than 0.5)

208 (HCSYERLQFHGHEAPFRTK(COCH2)V; thioether 2-19 via Ac; not fully specified) [compound 208]
Evaluation result of binding affinity to FGFR [1]: C (0.1 or more and less than 0.5)

301 (HCSYERLMFHGHEAPFRVK(COCH2)V; thioether 2-19 (inferred)) [compound 301]
Evaluation result of binding affinity to FGFR [1]: A (0.7 or more)

75 (NCSYERLQFHGHEAPFRVK(COCH2)V; thioether 2-19 (inferred)) [compound 75]
Evaluation result of binding affinity to FGFR [1]: A (0.7 or more)

51 (KCWQQLSFVGHIAPFVYK(COCH2)Y; thioether 2-18 (inferred)) [compound 51]
Evaluation result of binding affinity to FGFR [1]: B (0.5 or more and less than 0.7)

126 (HCSYYRLQFHGHEAPFRVK(COCH2)V; thioether 2-19 (inferred)) [compound 126]
Evaluation result of binding affinity to FGFR [1]: B (0.5 or more and less than 0.7)

253 (ICWTQLVLDGLYAPFLHK(COCH2)S; thioether 2-18 (inferred)) [compound 253]
Evaluation result of binding affinity to FGFR [1]: C (0.1 or more and less than 0.5)

121 (HCSYPRLQFHGHEAPFRVK(COCH2)V; thioether 2-19 (inferred)) [compound 121]
Evaluation result of binding affinity to FGFR [1]: A (0.7 or more)

B1: SEQ ID NO: 379 (peptide)
peptide: HXSYERLQFHGHEAPFRVXVKKK
modifications: not fully specified; Orn(acetyl); Hcy; thioether ring (Orn(acetyl))-(Hcy)
notes: chemically synthesized
binding amount (SPR, cyclic peptide molecules bound per one molecule of FGFR at 10 nmol/L peptide) [2]: ≥ 0.7 moleculesofthecyclicpeptide/onemoleculeoffgfr

B2: SEQ ID NO: 376 (peptide)
peptide: H[hCys]SYERLQFHGHEAPFRV[Dab]VKKK
modifications: bridge 2-19; not fully specified (residue 19, bridges); printed as H-(Hcy)-SYERLQFHGHEAPFRV-(Dab(acetyl))-VKKK
notes: chemically synthesized
binding amount (SPR, cyclic peptide molecules bound per one molecule of FGFR at 10 nmol/L peptide) [2]: ≥ 0.7 moleculesofthecyclicpeptide/onemoleculeoffgfr

B3: SEQ ID NO: 375 (peptide)
peptide: H[hCys]SYERLQFHGHEAPFRV[Orn]VKKK
modifications: bridge 2-19; not fully specified (residue 19, bridges); printed as H-(Hcy)-SYERLQFHGHEAPFRV-(Orn(acetyl))-VKKK
notes: chemically synthesized
binding amount (SPR, cyclic peptide molecules bound per one molecule of FGFR at 10 nmol/L peptide) [2]: ≥ 0.7 moleculesofthecyclicpeptide/onemoleculeoffgfr

B4: SEQ ID NO: 387 (peptide)
peptide: HXSYERLIFHGHEAPFWVXVKKK
modifications: not fully specified; meL (N-methyl leucine); Orn(acetyl); Hcy; thioether ring (Orn(acetyl))-(Hcy)
notes: chemically synthesized
binding amount (SPR, cyclic peptide molecules bound per one molecule of FGFR at 10 nmol/L peptide) [2]: ≥ 0.7 moleculesofthecyclicpeptide/onemoleculeoffgfr

B5: SEQ ID NO: 384 (peptide)
peptide: HXSYERLIFHGHEAPFWVXVKKK
modifications: not fully specified; Orn(acetyl); Hcy; thioether ring (Orn(acetyl))-(Hcy)
notes: chemically synthesized
binding amount (SPR, cyclic peptide molecules bound per one molecule of FGFR at 10 nmol/L peptide) [2]: ≥ 0.7 moleculesofthecyclicpeptide/onemoleculeoffgfr

B6: SEQ ID NO: 374 (peptide)
peptide: H[hCys]SYERLQFHGHEAPFRVKVKKK
modifications: bridge 2-19; not fully specified (residue 19, bridges); printed as H-(Hcy)-SYERLQFHGHEAPFRV-(K(acetyl))-VKKK
notes: chemically synthesized
binding amount (SPR, cyclic peptide molecules bound per one molecule of FGFR at 10 nmol/L peptide) [2]: ≥ 0.7 moleculesofthecyclicpeptide/onemoleculeoffgfr

B7: SEQ ID NO: 380 (peptide)
peptide: H[Dab]SYERLQFHGHEAPFRV[hCys]VKKK
modifications: bridge 2-19; not fully specified (residue 2, bridges); printed as H-(Dab(acetyl))-SYERLQFHGHEAPFRV-(Hcy)-VKKK
notes: chemically synthesized
binding amount (SPR, cyclic peptide molecules bound per one molecule of FGFR at 10 nmol/L peptide) [2]: ≥ 0.7 moleculesofthecyclicpeptide/onemoleculeoffgfr

B8: SEQ ID NO: 377 (peptide)
peptide: H[hCys]SYERLQFHGHEAPFRV[Dap]VKKK
modifications: bridge 2-19; not fully specified (residue 19, bridges); printed as H-(Hcy)-SYERLQFHGHEAPFRV-(Dap(acetyl))-VKKK
notes: chemically synthesized
binding amount (SPR, cyclic peptide molecules bound per one molecule of FGFR at 10 nmol/L peptide) [2]: ≥ 0.7 moleculesofthecyclicpeptide/onemoleculeoffgfr

B9: SEQ ID NO: 378 (peptide)
peptide: HKSYERLQFHGHEAPFRV[hCys]VKKK
modifications: bridge 2-19; not fully specified (residue 2, bridges); printed as H-(K(acetyl))-SYERLQFHGHEAPFRV-(Hcy)-VKKK
notes: chemically synthesized
binding amount (SPR, cyclic peptide molecules bound per one molecule of FGFR at 10 nmol/L peptide) [2]: ≥ 0.7 moleculesofthecyclicpeptide/onemoleculeoffgfr
